Laboratory results from patent US7414132B2, “Opioid receptor antagonists” (Eli Lilly and Company, priority 2003, dated 2008).

Experiments:
Format in all cases: biochemical
[1] = target: mu opioid receptor (MOR) (Homo sapiens, UniProt P35372); test: SPA-based GTP-γ-S binding assay, mu opioid receptor; conditions: membranes, GTP-γ-[35S] SPA; antagonist assay with agonist DAMGO 1 micromolar; read-out: In Vitro Ki Mu
Protocol: (§1) An SPA-based GTP-γ-S assay format was developed based on previous opioid (Emmerson et al., J. Pharm Exp Ther 278, 1121, 1996; Horng et al., Society for Neuroscience Abstracts, 434.6, 2000) and muscarinic (DeLapp et al., JPET 289, 946, 1999) assay formats. Membranes were re-suspended in 20 mM HEPES, 100 mM NaCl, 5 mM MgCl2, 1 mM DTT, and 1 mM EDTA. Fifty (50) […] of GTP-γ-[35S], compound, membrane suspension (20 microgram/well), and wheat germ agglutinin coated SPA beads (1 mg/well) were added to clear bottom 96 well assay plates. GDP ([…]) was added to the membrane solution prior to addition to the assay plates. Plates were sealed and incubated for four hours at room temperature then placed in a refrigerator overnight to allow the beads to settle. Signal stability at 4° C. was determined to be >60 hours. Plates were warmed to room temperature and counted in a Wallac Microbeta scintillation counter.
(§2) For antagonist assays, specific agonists were added at the following concentrations: (MOR) DAMGO 1 micromolar, (DOR) DPDPE 30 nM, (KOR) U69593 300 nM. Kb's were determined by Cheng-Prusoff equation (see Cheng and Prusoff, Biochem. Pharmacol. 22, 3099, 1973).

[2] = target: delta opioid receptor (DOR) (Homo sapiens, UniProt P41143); test: SPA-based GTP-γ-S binding assay, delta opioid receptor; conditions: membranes, GTP-γ-[35S] SPA; antagonist assay with agonist DPDPE 30 nM; read-out: In Vitro Ki Delta
delta opioid receptor (DOR), sequence (P41143 whole entry): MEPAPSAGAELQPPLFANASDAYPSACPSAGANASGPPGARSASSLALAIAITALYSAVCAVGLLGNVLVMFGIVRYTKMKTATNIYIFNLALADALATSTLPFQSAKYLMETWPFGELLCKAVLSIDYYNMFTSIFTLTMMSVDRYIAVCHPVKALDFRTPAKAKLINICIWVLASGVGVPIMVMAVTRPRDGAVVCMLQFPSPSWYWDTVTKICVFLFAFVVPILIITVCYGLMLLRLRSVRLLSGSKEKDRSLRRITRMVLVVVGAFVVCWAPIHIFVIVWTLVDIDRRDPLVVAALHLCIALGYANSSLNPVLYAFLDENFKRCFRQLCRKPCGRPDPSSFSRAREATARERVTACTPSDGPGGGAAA
Protocol: as §1, §2

[3] = target: kappa opioid receptor (KOR) (Homo sapiens, UniProt P41145); test: SPA-based GTP-γ-S binding assay, kappa opioid receptor; conditions: membranes, GTP-γ-[35S] SPA; antagonist assay with agonist U69593 300 nM; read-out: In Vitro Ki Kappa
kappa opioid receptor (KOR), sequence (P41145 whole entry): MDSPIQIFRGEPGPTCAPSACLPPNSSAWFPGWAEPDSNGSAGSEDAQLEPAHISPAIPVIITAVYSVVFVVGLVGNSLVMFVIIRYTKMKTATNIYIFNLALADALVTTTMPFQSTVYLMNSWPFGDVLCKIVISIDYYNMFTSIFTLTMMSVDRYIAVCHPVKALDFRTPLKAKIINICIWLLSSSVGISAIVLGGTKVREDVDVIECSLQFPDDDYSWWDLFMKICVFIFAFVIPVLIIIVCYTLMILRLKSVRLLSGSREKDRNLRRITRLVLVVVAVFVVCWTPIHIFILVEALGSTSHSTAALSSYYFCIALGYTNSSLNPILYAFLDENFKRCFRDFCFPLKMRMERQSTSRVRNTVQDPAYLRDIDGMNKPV
Protocol: as §1, §2

mu opioid receptor (MOR), sequence (P35372 whole entry): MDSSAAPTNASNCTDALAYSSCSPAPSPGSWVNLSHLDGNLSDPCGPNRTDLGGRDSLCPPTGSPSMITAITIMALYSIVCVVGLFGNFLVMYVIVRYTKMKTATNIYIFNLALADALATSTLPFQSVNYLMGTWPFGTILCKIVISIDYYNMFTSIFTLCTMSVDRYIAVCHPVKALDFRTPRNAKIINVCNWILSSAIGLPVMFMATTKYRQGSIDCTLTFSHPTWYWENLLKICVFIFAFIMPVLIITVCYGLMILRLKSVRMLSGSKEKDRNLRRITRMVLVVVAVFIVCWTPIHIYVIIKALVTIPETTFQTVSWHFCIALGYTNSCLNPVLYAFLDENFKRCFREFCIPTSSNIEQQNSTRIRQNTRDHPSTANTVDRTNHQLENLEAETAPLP

Row | SMILES | Ki [1] [nM] | Ki [2] [nM] | Ki [3] [nM]
1 | CC(C)CCNCc1ccc(Oc2ccc(/C(N)=N/O)cn2)cc1 [Example 2, N-Hydroxy-6-{4-[(3-methyl-butylamino)-methyl]-phenoxy}-nicotinamidine] | 43.4 | 269 | 117
2 | CC(C)CCNCc1ccc(Oc2ccc(C(=N)N)cn2)cc1 [Example 3, 6-{4-[(3-Methyl-butylamino)-methyl]-phenoxy}-nicotinamidine] | 46.1 | 485 | 134
3 | c1csc(CCNCc2ccc(Oc3ccc(C4=NCCN4)cn3)cc2)c1 [Example 5, {4-[5-(4,5-Dihydro-1H-imidazol-2-yl)-pyridin-2-yloxy]-benzyl}-(2-thiophen-2yl-ethyl)amine] | 16.4 | 370 | 32.8

Now those with a lower Ki [1], led by results:

Row | Ki [1] [nM] | Ki [2] [nM] | Ki [3] [nM] | SMILES
4 | 9.5 | 120 | 34.1 | CC(C)CCNCc1ccc(Oc2ccc(C3=NCCN3)cn2)cc1 [Example 4, {4-[5-(4,5-Dihydro-1H-imidazol-2-yl)-pyridin-2-yloxy]-benzyl}-(3-methyl-butyl)-amine]
5 | 7.83 | 178 | 43.2 | CC(C)CCNCc1ccc(Oc2ccc(/C(N)=N/C#N)cn2)cc1 [Example 8, N-Cyano-6-{4-[(3-methyl-butylamino)-methyl]-phenoxy}-nicotinamidine]
6 | 5.81 | 81.1 | 47.5 | CC(C)CCNCc1ccc(Oc2ccc3c(N)noc3c2)cc1 [Example 11, 6-{4-[(3-Methyl-butylamino)-methyl]-phenoxy}-benzo[d]isoxazol-3-ylamine]
7 | 5.77 | 214 | 40.1 | CC(C)CCNCc1ccc(Oc2ccc(-c3ncc[nH]3)cn2)cc1 [Example 10, {4-[5-(1H-Imidazol-2-yl)-pyridin-2-yloxy]-benzyl}-(3-methyl-butyl)-amine]
